Experimental data as given in the supplement of paper PMC9013687.

What was measured:
Danio rerio embryo [1] = test: EC20 STC bell shape; higher = less potent; conditions: exposure time: 25 h
Experimental: (§1)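 Zebrafish embryos (UFZ-OBI strain) were exposed from 2 hpf for 48 h (2 dpf) or 96 h (4 dpf) at 28 °C; spontaneous tail coiling was scored at 25 hpf. Morphological features from automated image analysis (FishInspector), heart rate and locomotor response were fitted with drc models. Quantal endpoints were dichotomised at 2.5 SD from controls and fitted with a log-logistic model; heart rate, pigmentation and STC were normalised to the replicate control mean. Betamethasone was tested as betamethasone dipropionate, diflorasone as diflorasone diacetate.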

Danio rerio embryo [2] = test: EC10 Pigmentation decrease; higher = less potent
Experimental: as §1

Danio rerio embryo [3] = test: EC50 Head size_Decrease
Experimental: as §1

Danio rerio embryo [4] = test: EC10 Eye size_Decrease; higher = less potent
Experimental: as §1

Danio rerio embryo [5] = test: EC10 Lack of SB; higher = less potent; conditions: exposure time: 4 dpf
Experimental: as §1

Danio rerio embryo [6] = test: EC10 STC bell shape; higher = less potent; conditions: exposure time: 25 h
Experimental: as §1

Danio rerio embryo [7] = test: EC50 Mandibular arch distance_Decrease; conditions: exposure time: 4 dpf
Experimental: as §1

Danio rerio embryo [8] = test: EC50 Head trunk angle_Decrease; conditions: exposure time: 2 dpf
Experimental: as §1

Danio rerio embryo [9] = test: EC20 Lack of SB; higher = less potent; conditions: exposure time: 4 dpf
Experimental: as §1

Danio rerio embryo [10] = test: EC20 Head size_Decrease; higher = less potent
Experimental: as §1

Danio rerio embryo [11] = system: Danio rerio embryo
Experimental: as §1

Danio rerio embryo [12] = test: EC10 Heart rate; higher = less potent
Experimental: as §1

Danio rerio embryo [13] = test: EC20 Eye size_Decrease; higher = less potent
Experimental: as §1

Danio rerio embryo [14] = test: EC20 Mandibular arch distance_Decrease; higher = less potent; conditions: exposure time: 4 dpf
Experimental: as §1

Danio rerio embryo [15] = test: EC50 Eye size_Decrease
Experimental: as §1

Danio rerio embryo [16] = test: EC20 Pigmentation decrease; higher = less potent
Experimental: as §1

Danio rerio embryo [17] = test: EC10 Head size_Decrease; higher = less potent
Experimental: as §1

Danio rerio embryo [18] = system: Danio rerio embryo; remark: listed apart in the source
Experimental: as §1

Danio rerio embryo [19] = test: EC20 Heart rate; higher = less potent
Experimental: as §1

Danio rerio embryo [20] = test: EC10 Head trunk angle_Decrease; higher = less potent; conditions: exposure time: 2 dpf
Experimental: as §1

Danio rerio embryo [21] = test: EC10 Mandibular arch distance_Decrease; higher = less potent; conditions: exposure time: 4 dpf
Experimental: as §1

Danio rerio embryo [22] = conditions: exposure time: 4 dpf
Experimental: as §1

Danio rerio embryo [23] = test: EC20 Otolith; higher = less potent; conditions: exposure time: 2 dpf
Experimental: as §1

Danio rerio embryo [24] = test: EC10 Otolith; higher = less potent; conditions: exposure time: 2 dpf
Experimental: as §1

Danio rerio embryo [25] = test: EC10 STC decrease; higher = less potent; conditions: exposure time: 25 h
Experimental: as §1

Danio rerio embryo [26] = test: EC20 STC decrease; higher = less potent; conditions: exposure time: 25 h
Experimental: as §1

Danio rerio embryo [27] = test: EC20 Head-trunk angle_Decrease; higher = less potent; conditions: exposure time: 2 dpf
Experimental: as §1

Danio rerio embryo [28] = test: EC50 Head-trunk angle_Decrease; conditions: exposure time: 2 dpf
Experimental: as §1

Danio rerio embryo [29] = test: EC20 Pigmentation increase; higher = less potent; conditions: exposure time: 4 dpf
Experimental: as §1

Danio rerio embryo [30] = test: EC20 STC increase; higher = less potent; conditions: exposure time: 25 h
Experimental: as §1

Danio rerio embryo [31] = test: EC10 STC increase; higher = less potent; conditions: exposure time: 25 h
Experimental: as §1

Danio rerio embryo [32] = test: EC10 Pigmentation increase; higher = less potent; conditions: exposure time: 4 dpf
Experimental: as §1

Danio rerio embryo [33] = test: EC20 LMR ligth decrease; higher = less potent; conditions: exposure time: 4 dpf
Experimental: as §1

Danio rerio embryo [34] = test: EC10 LMR ligth decrease; higher = less potent; conditions: exposure time: 4 dpf
Experimental: as §1

Row | Compound | EC10 Pigmentation decrease (Danio rerio embryo [2]; exposure time: 2 dpf) [µM] | EC50 Head size Decrease (Danio rerio embryo [3]; exposure time: 2 dpf) [µM] | EC10 Eye size Decrease (Danio rerio embryo [4]; exposure time: 2 dpf) [µM] | EC10 Eye size Decrease (Danio rerio embryo [4]; exposure time: 4 dpf) [µM] | EC10 Lack of SB (Danio rerio embryo [5]) [µM] | EC50 Head trunk angle Decrease (Danio rerio embryo [8]) [µM] | EC20 Lack of SB (Danio rerio embryo [9]) [µM] | EC20 Head size Decrease (Danio rerio embryo [10]; exposure time: 2 dpf) [µM] | EC10 Heart rate (Danio rerio embryo [12]; exposure time: 2 dpf) [µM] | EC10 Heart rate (Danio rerio embryo [12]; exposure time: 4 dpf) [µM] | EC20 Eye size Decrease (Danio rerio embryo [13]; exposure time: 2 dpf) [µM] | EC20 Eye size Decrease (Danio rerio embryo [13]; exposure time: 4 dpf) [µM] | EC50 Eye size Decrease (Danio rerio embryo [15]; exposure time: 2 dpf) [µM] | EC50 Eye size Decrease (Danio rerio embryo [15]; exposure time: 4 dpf) [µM] | EC10 Head size Decrease (Danio rerio embryo [17]; exposure time: 2 dpf) [µM] | EC50 Heart rate (Danio rerio embryo [18]; exposure time: 2 dpf) [µM] | EC20 Heart rate (Danio rerio embryo [19]; exposure time: 2 dpf) [µM] | EC20 Heart rate (Danio rerio embryo [19]; exposure time: 4 dpf) [µM] | EC10 Head trunk angle Decrease (Danio rerio embryo [20]) [µM] | EC50 Lack of SB (Danio rerio embryo [22]) [nM] | further results
1 | CCCCC(O)(Cn1cncn1)c1ccc(Cl)cc1Cl (stereo not given) [Hexaconazole] | 17.8 | 54.3 | 44.9 | 10.7 | 6.28 | 23.3 | 7.52 | 40.3 | 8.31 | 5.53 | 48.8 | 12.2 | 56.1 | 15.1 | 33.8 | 39.8 | 14.8 | 11.1 | 12.8 | 10300 | EC20 STC bell shape (Danio rerio embryo [1]): 19.2 µM; EC10 STC bell shape (Danio rerio embryo [6]): 17.5 µM; EC50 Mandibular arch distance Decrease (Danio rerio embryo [7]): 37.1 µM; EC50 Pigmentation decrease (Danio rerio embryo [11]; exposure time: 2 dpf): 22.6 µM; EC20 Mandibular arch distance Decrease (Danio rerio embryo [14]): 24.9 µM; EC20 Pigmentation decrease (Danio rerio embryo [16]; exposure time: 2 dpf): 19.4 µM; EC10 Mandibular arch distance Decrease (Danio rerio embryo [21]): 19.8 µM
2 | CCCCOC(=O)[C@@H](C)Oc1ccc(Oc2ccc(C(F)(F)F)cn2)cc1 [fluazifop-p-butyl] | 2.74 | 6.88 | 1.03 | 0.781 | 0.734 | 15.5 | 0.991 | 4.24 | – | – | 1.69 | 1.07 | 3.96 | 1.85 | 3.19 | – | – | – | 1.74 | 1650 | EC20 Otolith (Danio rerio embryo [23]): 6.11 µM; EC50 Pigmentation decrease (Danio rerio embryo [11]; exposure time: 2 dpf): 9.58 µM; EC20 Pigmentation decrease (Danio rerio embryo [16]; exposure time: 2 dpf): 4.35 µM; EC10 Otolith (Danio rerio embryo [24]): 4.73 µM
3 | CCOC(=O)N1CCC(=C2c3ccc(Cl)cc3CCc3cccnc32)CC1 [Loratadine] | – | 12.7 | 5.86 | 5.5 | 0.167 | 7.05 | 0.202 | 4.61 | 1.01 | 1.1 | 6.71 | 5.96 | 8.45 | 6.82 | 2.55 | 14.8 | 2.72 | 2.18 | 4.17 | 282 | EC10 Pigmentation decrease (Danio rerio embryo [2]; exposure time: 4 dpf): 8.11 µM; EC50 Head size Decrease (Danio rerio embryo [3]; exposure time: 4 dpf): 14.1 µM; EC10 STC decrease (Danio rerio embryo [25]): 3.8 µM; EC20 STC decrease (Danio rerio embryo [26]): 4.66 µM; EC20 Head size Decrease (Danio rerio embryo [10]; exposure time: 4 dpf): 8.95 µM; EC50 Pigmentation decrease (Danio rerio embryo [11]; exposure time: 4 dpf): 9.57 µM; EC20 Pigmentation decrease (Danio rerio embryo [16]; exposure time: 4 dpf): 8.62 µM; EC10 Head size Decrease (Danio rerio embryo [17]; exposure time: 4 dpf): 6.85 µM; EC50 Heart rate (Danio rerio embryo [18]; exposure time: 4 dpf): 7.03 µM
4 | C[Si](Cn1cncn1)(c1ccc(F)cc1)c1ccc(F)cc1 [Flusilazole] | – | 30.1 | 21.5 | 4.51 | 1.64 | – | 1.99 | 28.8 | 16 | 4.6 | 21.8 | 4.86 | 22.3 | 5.51 | 28.1 | – | 26.2 | 7.13 | – | 2780 | EC10 Pigmentation decrease (Danio rerio embryo [2]; exposure time: 4 dpf): 3.38 µM; EC20 Head-trunk angle Decrease (Danio rerio embryo [27]): 6.28 µM; EC50 Head-trunk angle Decrease (Danio rerio embryo [28]): 11.8 µM; EC10 STC decrease (Danio rerio embryo [25]): 2.72 µM; EC50 Mandibular arch distance Decrease (Danio rerio embryo [7]): 11.4 µM; EC20 STC decrease (Danio rerio embryo [26]): 4.11 µM; EC50 Pigmentation decrease (Danio rerio embryo [11]; exposure time: 4 dpf): 22.2 µM; EC20 Mandibular arch distance Decrease (Danio rerio embryo [14]): 7.71 µM; EC20 Pigmentation decrease (Danio rerio embryo [16]; exposure time: 4 dpf): 7.16 µM; EC10 Mandibular arch distance Decrease (Danio rerio embryo [21]): 6.12 µM
5 | O=C(O)CCc1nc(-c2ccccc2)c(-c2ccccc2)o1 [Oxaprozin] | – | 26.6 | 53.1 | 20.6 | 7.85 | – | 8.73 | 15.1 | 28 | 23 | 61.2 | 22.7 | 78.1 | 26.7 | 10.8 | 150 | 52.1 | 29.1 | – | 10500 | EC20 Pigmentation increase (Danio rerio embryo [29]): 31 µM; EC50 Head size Decrease (Danio rerio embryo [3]; exposure time: 4 dpf): 43.4 µM; EC20 STC increase (Danio rerio embryo [30]): 12.4 µM; EC20 Head size Decrease (Danio rerio embryo [10]; exposure time: 4 dpf): 19.7 µM; EC10 STC increase (Danio rerio embryo [31]): 6.23 µM; EC10 Pigmentation increase (Danio rerio embryo [32]): 29.2 µM; EC10 Head size Decrease (Danio rerio embryo [17]; exposure time: 4 dpf): 12.4 µM
6 | CSc1nc2cc(Cl)c(Oc3cccc(Cl)c3Cl)cc2[nH]1 [Triclabendazole] | 1.44 | – | 1.27 | 0.448 | 0.462 | 2.05 | 0.481 | – | 0.345 | 0.19 | 1.42 | 0.512 | 1.72 | 0.644 | – | 3.71 | 0.829 | 0.364 | 1.39 | 516 | EC20 LMR ligth decrease (Danio rerio embryo [33]): 0.792 µM; EC20 Pigmentation increase (Danio rerio embryo [29]): 0.667 µM; EC10 STC decrease (Danio rerio embryo [25]): 0.00111 µM; EC10 LMR ligth decrease (Danio rerio embryo [34]): 0.783 µM; EC20 STC decrease (Danio rerio embryo [26]): 0.00782 µM; EC50 Pigmentation decrease (Danio rerio embryo [11]; exposure time: 2 dpf): 1.92 µM; EC20 Pigmentation decrease (Danio rerio embryo [16]; exposure time: 2 dpf): 1.6 µM; EC10 Pigmentation increase (Danio rerio embryo [32]): 0.654 µM; EC50 Heart rate (Danio rerio embryo [18]; exposure time: 4 dpf): 1.11 µM
